The values that follow come from article PMC10537553, “Synthesis, DFT Study, and In Vitro Evaluation of Antioxidant Properties and Cytotoxic and Cytoprotective Effects of New Hydrazones on SH-SY5Y Neuroblastoma Cell Lines” (Pharmaceuticals, 2023).

Entries after “also recorded” stand apart in the source; their conditions may differ. Bounds are passed on as bounds.

A short description of series [1]: MTT cell viability assay (cytotoxicity). It counts as cell-based, human. To be noted: human, SH-SY5Y neuroblastoma cells, 1–500 μM, 24 h, MTT. The method, then:
(§1) The effects of the newly synthesized N-pyrrolyl-hydrazone derivatives on the cellular viability of neuronal SH-SY5Y cells were evaluated, and the corresponding IC50 values were calculated. In the current study, the cells were seeded at density 2 × 10^4 and were treated with the test compounds at concentrations 1–500 μM for 24 h.
(§2) Human neuroblastoma cell line SH-SY5Y was purchased from European Collection of Cell Cultures (ECACC, Salisbury, UK). SH-SY5Y cells were cultivated in an RPMI 1640 medium supplemented with 10% heat-inactivated FBS, 2 mM L-glutamine, and 1% antibiotics (penicillin/streptomycin). The cell line was incubated at 37 °C with 5% of CO2, and the culture’s medium was replaced with a time interval of 2–3 days.
(§3) The SH-SY5Y cells were plated for 24 h at 37 °C on 96-well plates at a density of 2 × 10^4 cells per well to confluence. After 24 h, the cells were treated with the compounds (1–500 μM). MTT assay was performed to measure the metabolic activity in living cells. The mitochondria succinate dehydrogenase system of living cells metabolized yellow-colored, water-soluble, tetrazolium salt MTT (3-(4,5-dimethylthiazol2-yl)-2,5-diphenyltetrazolium bromide to a purple insoluble formazan crystal. The cells were incubated with the test solutions for 24 h, the MTT solution (10 mg/mL in PBS) was then added to each well, and the mixture was incubated at 37 °C for 3 h. Thereafter, the MTT solution was carefully aspirated, and the obtained formazan crystals were dissolved by the addition of […] DMSO. The cell viability was determined by measuring the optical density −570–690 nm in a multiplate reader Synergy 2 (BioTek Instruments, Inc., Highland Park, Winooski, VT, USA).
Background: Formazan colour is commonly taken as a measure of viable cells.

The nature of series [2]: ABTS radical scavenging assay. To be noted: for radical scavenging effect (in words): 1 mg/mL, structure-activity discussion of the ABTS/DPPH results; for ABTS scavenging activity: 1 mg/mL in methanol, 10 min, 734 nm. The format is biochemical. The method, then:
During the 2,2′-azino-bis(3-ethylbenzothiazoline-6-sulphonic acid) (ABTS) assay, the discoloration of the initial color could be detected at 734 nm.
The ABTS radical tests were measured according to a modified method of Arnao et al.. The test solutions were dissolved in methanol (1 mg/mL) at ambient temperature. The radical cation of ABTS (ABTS^+•) was created by mixing 7 mmol/L solution of ABTS and 2.4 mmol/L solution of potassium persulphate, which were set to react for 14 h in the dark at room temperature. The working solutions consisted of 2 mL of the stock solution diluted in 50 mL of methanol with an absorbance of […] units at 734 nm. Then, 1 mL of the ABTS working solution was allowed to react with the title compounds for 10 min, with a subsequent absorbance determination. The inhibition percentages were evaluated by applying the same formula as the DPPH assay (4). ABTSscavenging activity = Abscontrol − Abssample/Abscontrol × 100%(4) where Abscontrol is the absorbance of the ABTS radical in methanol, and Abssample is the absorbance of the ABTS radical solution mixed with the sample.

Series [3] can be described thus: DPPH radical scavenging assay. The settings on record: 1 mg/mL in methanol, 30 min, 517 nm. The format is biochemical. The method, then: The 1,1-diphenyl-2-picrylhydrazyl (DPPH) radical scavenging activity of the newly synthesized derivatives was determined at one concentration—1 mg/mL. Trolox was used as a standard.
The scavenging assay of the title compounds against DPPH radical was carried out by the widely employed protocol of Brand-Williams et al.. Briefly, a single concentration of 1 mg/mL for each synthesized compound in methanol was obtained. Subsequent addition of 1 mL of the methanol solution of DPPH (1 mmol/L) was performed. The reaction mixtures were incubated in the dark for 30 min. The absorbance was measured at 517 nm. Three measurements were carried out for each sample; 6-Hydroxy-2,5,7,8- tetramethylchroman-2-carboxylic acid (Trolox) was applied as a standard. The percentage inhibition of the tested samples was calculated by the following Formula (3):DPPHscavenging activity = Abscontrol − Abssample/Abscontrol × 100%(3) where Abscontrol is the absorbance of the DPPH radical in methanol, and Abssample is the absorbance of the DPPH radical solution mixed with the sample.
Background: The DPPH test is a chemical assay of radical scavenging.

Series [4] deals with SH-SY5Y cells. Description: H2O2-induced oxidative stress model, protection by MTT. The format is cell-based, human. The settings on record: H2O2 1 mM, 15 min; for protective effect against H2O2-induced oxidative stress (in words): 1, 10, 20 µM pre-incubation 90 min; for protection at the lowest tested concentration (in words): 1 µM pre-incubation 90 min. The method, then:
The cells were pre-incubated with the tested compounds at concentrations 1, 10, and 20 µM for 90 min. Melatonin was used as a reference compound because of its well-established neuroprotective effects in various in vitro and in vivo models. After 90 min pre-incubation with the test substances, SH-SY5Y cells were exposed to H2O2 (1 mM, 15 min), as described in the Materials and Methods section.
as §2
For the H2O2-induced oxidative stress model, SH-SY5Y cells were seeded in 96-well plates at a density of 3.5 × 10^4/well in 100 μL for 24 h. Afterwards, the cell medium was aspirated, and the cells were treated with different concentrations of tested compounds (1, 10, 20 µM) for 90 min; then, the SH-SY5Y cells were washed with phosphate-buffered saline (PBS) and were exposed to the oxidative stress (H2O2 1 mM in PBS, 15 min). The contents of all wells were changed with culture medium. After 24 h, the amount of attached viable cells was evaluated by MTT assay. Negative controls (cells without hydrogen peroxide treatment) were considered as 100% protection, and hydrogen-peroxide-treated cells as 0% protection.

The subject of series [5] is SH-SY5Y cells. The series can be described thus: MTT cell viability assay (cytotoxicity). It counts as cell-based, human. The procedure: as §1, §2, §3

The melting point is the temperature, or range, at which the solid turns liquid. As a reminder, the IC50 is the concentration that inhibits the measured activity by half.

In turn, `CCOC(=O)c1cc(-c2ccc(Br)cc2)n(CCC(=O)N/N=C/c2ccc([N+](=O)[O-])cc2)c1C` [8c, (E)-ethyl 5-(4-bromophenyl)-2-methyl-1-(3-(2-(4-nitrobenzylidene)hydrazinyl)-3-oxopropyl)-1H-pyrrole-3-carboxylate] displayed a melting point of 214.4 to 217.1 °C. In addition, the IC50 at 24 h in series [1] is 58.2 µM.

In the case of `CCOC(=O)c1cc(-c2ccc(Br)cc2)n(CC(=O)N/N=C/c2ccc(Cl)cc2)c1C` [7b, (E)-ethyl 5-(4-bromophenyl)-1-(2-(2-(4-chlorobenzylidene)hydrazinyl)-2-oxoethyl)-2-methyl-1h-pyrrole-3-carboxylate], the melting point lay in the range of 229.4 to 231.2 °C. In series [2], the “radical scavenging effect (in words)” value is “negligible effect”. Also, in series [1], the IC50 at 24 h turned out to be 67.6 µM.

As for `Cc1c(C)c2c(c(C)c1O)CCC(C)(C(=O)O)O2` (stereo not drawn) [Trolox, 6-Hydroxy-2,5,7,8-tetramethylchroman-2-carboxylic acid, reference compound], the DPPH scavenging activity in series [3] is 94%.

For the compound `CCOC(=O)c1cc(-c2ccc(Br)cc2)n(CCC(=O)N/N=C/c2ccc(OC)cc2OC)c1C` [8e, (E)-ethyl 5-(4-bromophenyl)-1-(3-(2-(2,4-dimethoxybenzylidene)hydrazinyl)-3-oxopropyl)-2-methyl-1H-pyrrole-3-carboxylate], the melting point was in the range of 170 to 171.9 °C. For the same compound, in series [2], the “radical scavenging effect (in words)” value is “lack of radical scavenging effects”. The concentration for half-maximal inhibition (IC50) at 24 h in series [1] was determined as 91.1 µM. Moreover, the “protective effect against H2O2-induced oxidative stress (in words)” value (shortened to “protective effect”) with SH-SY5Y cells [4] was “lower antioxidant protection; also recorded: lower than melatonin”.

For `CCOC(=O)c1cc(-c2ccc(Br)cc2)n(CCC(=O)N/N=C/c2ccc(Cl)cc2)c1C` [8b, (E)-ethyl 5-(4-bromophenyl)-1-(3-(2-(4-chlorobenzylidene)hydrazinyl)-3-oxopropyl)-2-methyl-1H-pyrrole-3-carboxylate], the melting point lay within 181.4 to 184.6 °C. In addition, in series [1], the IC50 at 24 h amounted to 57.4 µM.

`CCOC(=O)c1cc(-c2ccc(Br)cc2)n(CC(=O)N/N=C/c2cc(OC)c(O)c(OC)c2)c1C` [7d, (E)-ethyl 5-(4-bromophenyl)-1-(2-(2-(4-hydroxy-3,5-dimethoxybenzylidene)hydrazine-yl)-2-oxoethyl)-2-methyl-1H-pyrrole-3-carboxylate]: the melting point is 191.9 to 194.4 °C. This compound also gave an ABTS scavenging activity in series [2] of 83%. The IC50 at 24 h in series [1] is 99.6 µM. Also, in series [3], the DPPH scavenging activity is reported as 24%. In the series with SH-SY5Y cells [4], the “protection at the lowest tested concentration (in words)” value is “statistically significant protection” and the “protective effect” value is “better protection in all tested concentrations than the reference compound melatonin; also recorded: stronger protective effects”.

For `CCOC(=O)c1cc(-c2ccc(Br)cc2)n(CCC(=O)N/N=C/c2cc(OC)c(O)c(OC)c2)c1C` [8d, (E)-ethyl 5-(4-bromophenyl)-1-(3-(2-(4-hydroxy-3,5-dimethoxybenzylidene) hydrazine-yl)-3-oxopropyl)-2-methyl-1H-pyrrole-3-carboxylate], the melting point was in the range of 196.6 to 197.6 °C. The same compound displayed an ABTS scavenging activity in series [2] of 89%. For the same compound, the “toxicity relative to 7d (times higher)” value with SH-SY5Y cells [5] (from IC50 values) is 1.7 times. Also, the IC50 at 24 h in series [1] stood at 57.3 µM. In series [3], this compound had a DPPH scavenging activity of 19%.

With `COc1ccc2[nH]cc(CCNC(C)=O)c2c1` [Melatonin, reference compound], the IC50 at 24 h in series [1] was more than 500 µM. In addition, in the series with SH-SY5Y cells [4], the “protective effect” value is reported as “dose-dependent protective effects”.

The compound `CCOC(=O)c1cc(-c2ccc(Br)cc2)n(CC(=O)N/N=C/c2ccc(OC)cc2OC)c1C` [7e, (E)-ethyl 5-(4-bromophenyl)-1-(2-(2-(2,4-dimethoxybenzylidene)hydrazinyl)-2-oxo-ethyl)-2-methyl-1H-pyrrole-3-carboxylate] showed a melting point of 206 to 207.6 °C. The “radical scavenging effect (in words)” value in series [2] is on record as “lack of radical scavenging effects”. The half-inhibitory concentration (IC50) at 24 h in series [1] was determined as 63.1 µM. Also, the “protection at the lowest tested concentration (in words)” value in the series with SH-SY5Y cells [4] was “statistically significant protection”.

Compound `CCOC(=O)c1cc(-c2ccc(Br)cc2)n(CC(=O)N/N=C/c2ccc(N(C)C)cc2)c1C` [7a, (E)-ethyl 5-(4-bromophenyl)-1-(2-(2-(4-(dimethylamino)benzylidene)hydrazinyl)-2-oxoethyl)-2-methyl-1H-pyrrole-3-carboxylate] registered a melting point of 211.4 to 213.6 °C. The compound also returned an ABTS scavenging activity in series [2] of 22%. Also, in series [1], the concentration for half-maximal inhibition (IC50) at 24 h was found to be 55.8 µM.

Take `CCOC(=O)c1cc(-c2ccc(Br)cc2)n(CCC(=O)N/N=C/c2ccc(N(C)C)cc2)c1C` [8a, (E)-ethyl 5-(4-bromophenyl)-1-(3-(2-(4-(dimethylamino)benzylidene)hydrazinyl)-3-oxopropyl)-2-methyl-1H-pyrrole-3-carboxylate]: the melting point is 212 to 213.3 °C. In addition, in series [2], the ABTS scavenging activity is 48%. For the same compound, the IC50 at 24 h in series [1] turned out to be 56.3 µM.

With `CCOC(=O)c1cc(-c2ccc(Br)cc2)n(CC(=O)N/N=C/c2ccc([N+](=O)[O-])cc2)c1C` [7c, (E)-ethyl 5-(4-bromophenyl)-2-methyl-1-(2-(2-(4-nitrobenzylidene)hydrazinyl)-2-oxo-ethyl)-1H-pyrrole-3-carboxylate], the melting point lay in the range of 245.9 to 247.2 °C. Also, in the series on SH-SY5Y cells [5] (24 h), the “cytotoxicity (in words)” value is on record as “non-toxic”. In addition, the IC50 at 24 h in series [1] was more than 500 µM. In addition, in the series on SH-SY5Y cells [4], the “protective effect” value was “most potent protection; also recorded: stronger protective effects”.
